Laboratory results published in patent US8278268B2, “Combination therapy comprising glucose reabsorption inhibitors and PPAR modulators” (Ortho-McNeil Pharmaceutical, Inc., priority 2001, dated 2012).

Key:
db/db mice [1] = assay: Example 4: 32 day oral dosing of T-1095 +/− MCC-555 in db/db mice; format: in vivo; conditions: for % HbA1C +/− SEM / Body Weight Change (g) ± SEM / Glucose / Insulin / Liver Weight (g) ± SEM / TG / Heart Weight (g) ± SEM: 32 day oral dosing
Protocol: (§1) To examine the effect of T-1095 in combination with a PPARγ agonist, male db/db mice (6 weeks of age/Jackson Labs, […]), a PPARγ agonist such as MCC-555 (3 mg/kg-30 mg/kg), T-1095 (3-100 mg/kg), or MCC-555 plus T-1095. Mice (n=8 animals/group) received the test compounds or vehicle by oral gavage in a volume of 10 ml/kg of body weight. Body weight was recorded on day 1, prior to dosing, and twice a week for the duration of the study. One hour after the final dose, mice were weighed and anesthetized with CO2/O2 (70:30). Mice were then bled by retro-orbital sinus puncture into 2 mL heparinized polypropylene tubes on ice. Mice were then fasted overnight and bled by tail-clip prior to receiving a glucose challenge (2 g/kg p.o). Blood was collected at 30, 60.120, and 180 minutes after the challenge. Animals were then sacrificed and epididymal fat pads, livers, and hearts were excised, weighed and frozen for histological examination. Plasma samples were then assayed for glucose, HbA1c, insulin, and triglycerides.
Livers and hearts were excised, weighed and frozen.

db/db mice [2] = assay: Example 4: plasma glucose AUC following an oral glucose challenge; format: in vivo
Protocol: as §1

female db/db mice [3] = assay: Example 1: 11 day oral dosing of rosiglitazone +/− T-1095 in db/db mice; format: in vivo
Protocol: (§2) Mice (n=8 animals/group) received the test compounds or vehicle by oral gavage in a volume of 10 ml/kg of body weight. Body weight was recorded on day 1, prior to dosing, and days 4, 8 and 11. Eighteen hours after the final dose, mice were weighed and anesthetized with CO2/O2 (70:30). Mice were then bled by retro-orbital sinus puncture into 2 mL heparinized polypropylene tubes on ice.
Plasma samples were then assayed for glucose, insulin, and triglycerides using Trinder reagent (Sigma Diagnostics), Elisa (Alpco) and GPO-Trinder (Sigma Diagnostics), respectively.
(§3) Livers were excised, weighed and frozen. […] Heart weight can be measured in an analogous manner.

female db/db mice [4] = assay: Example 2: 11 day oral dosing of T-1095 +/− rosiglitazone in db/db mice; format: in vivo
Protocol: as §2, with “ice. Plasma samples were then assayed for glucose, insulin, and triglycerides using Trinder reagent (Sigma Diagnostics), Elisa (Alpco) and GPO-Trinder (Sigma Diagnostics), respectively. Livers and hearts were excised, weighed and frozen.” for “ice.”
as §3

[5] = test system: diabetic rodent models (STZ-induced diabetic rat, yellow KK mice, db/db mice, Zucker Diabetic Fatty rats and GK rats); conditions: cited from earlier work

O=C1NC(=O)C(Cc2ccc3cc(OCc4ccccc4F)ccc3c2)S1 (centres unmarked) [MCC-555, 5-((6-((2-fluorophenyl)methoxy)-2-naphthalenyl)methyl)-2,4-thiazolidinedione, reference compound]
% HbA1C +/− SEM (db/db mice [1]; 3 mpk MCC-555): 4.50 ± 0.17 % | Body Weight Change (g) ± SEM (db/db mice [1]; 3 mpk MCC-555): 9.14 ± 1.5 g | Glucose (db/db mice [1]; 3 mpk MCC-555): 201.3 ± 24 mg/dL | Insulin (db/db mice [1]; 3 mpk MCC-555): 31.7 ± 4.7 ng/dL | Liver Weight (g) ± SEM (db/db mice [1]; 3 mpk MCC-555): 2.36 ± 0.22 g | TG (db/db mice [1]; 3 mpk MCC-555): 90.20 ± 4.5 mg/dL | % HbA1C +/− SEM (db/db mice [1]; 10 mpk MCC-555): 4.10 ± 0.15 % | Body Weight Change (g) ± SEM (db/db mice [1]; 10 mpk MCC-555): 9.53 ± 0.9 g | Glucose (db/db mice [1]; 10 mpk MCC-555): 155.1 ± 22 mg/dL | Heart Weight (g) ± SEM (db/db mice [1]; 10 mpk MCC-555): 0.13 ± 0.01 g | Insulin (db/db mice [1]; 10 mpk MCC-555): 11.9 ± 1.4 ng/dL | Liver Weight (g) ± SEM (db/db mice [1]; 10 mpk MCC-555): 1.91 ± 0.17 g | TG (db/db mice [1]; 10 mpk MCC-555): 73.90 ± 5.4 mg/dL | % HbA1C +/− SEM (db/db mice [1]; 30 mpk MCC-555): 4.11 ± 0.14 % | Body Weight Change (g) ± SEM (db/db mice [1]; 30 mpk MCC-555): 8.0 ± 0.7 g | Glucose (db/db mice [1]; 30 mpk MCC-555): 111.5 ± 8.0 mg/dL | Heart Weight (g) ± SEM (db/db mice [1]; 30 mpk MCC-555): 0.12 ± 0.01 g | Insulin (db/db mice [1]; 30 mpk MCC-555): 5.40 ± 0.4 ng/dL | Liver Weight (g) ± SEM (db/db mice [1]; 30 mpk MCC-555): 1.68 ± 0.1 g | TG (db/db mice [1]; 30 mpk MCC-555): 55.30 ± 4.7 mg/dL | change in heart weight (db/db mice [1]; MCC-555 alone, in this study): did not produce a significant change in heart weight | AUC glucose % of Vehicle ± SEM (db/db mice [2]; 3 mpk MCC-555, 32 day oral dosing): 74.11 ± 7.38 % of Vehicle | AUC glucose % of Vehicle ± SEM (db/db mice [2]; 10 mpk MCC-555, 32 day oral dosing): 71.05 ± 8.37 % of Vehicle | AUC glucose % of Vehicle ± SEM (db/db mice [2]; 30 mpk MCC-555, 32 day oral dosing): 48.03 ± 4.37 % of Vehicle

CN(CCOc1ccc(CC2SC(=O)NC2=O)cc1)c1ccccn1 (centres unmarked) [Rosi, 5-((4-(2-(methyl-2-pyridinylamino)ethoxy)phenyl)methyl)-2,4-thiazolidinedione]
Glucose (female db/db mice [3]; 0.1 mpk Rosi, mean): ***388.13 mg/dL | Insulin (female db/db mice [3]; 0.1 mpk Rosi, mean): 65.75 ng/mL | TG (female db/db mice [3]; 0.1 mpk Rosi, mean): ***188.38 mg/dL | Glucose (female db/db mice [3]; 1 mpk Rosi, mean): ***246.71 mg/dL | Insulin (female db/db mice [3]; 1 mpk Rosi, mean): ***25.43 ng/ml | TG (female db/db mice [3]; 1 mpk Rosi, mean): ***199.43 mg/dL | Glucose (female db/db mice [3]; 10 mpk Rosi, mean): ***321.63 mg/dL | Insulin (female db/db mice [3]; 10 mpk Rosi, mean): ***31.63 ng/ml | TG (female db/db mice [3]; 10 mpk Rosi, mean): ***136.25 mg/dL | Body Weight Change (female db/db mice [3]; Rosi 0.1 mpk, −T1095, mean): 4.34 g | Liver Weight (female db/db mice [3]; Rosi 0.1 mpk, −T1095, mean): 2.31 g | Body Weight Change (female db/db mice [3]; Rosi 1 mpk, −T1095, mean): 2.60 g | Liver Weight (female db/db mice [3]; Rosi 1 mpk, −T1095, mean): 2.32 g | Body Weight Change (female db/db mice [3]; Rosi 10 mpk, −T1095, mean): 4.76 g | Liver Weight (female db/db mice [3]; Rosi 10 mpk, −T1095, mean): 2.36 g | Body Weight Change (female db/db mice [4]; Rosi 10 mpk, mean): 3.9 g | Glucose (female db/db mice [4]; Rosi 10 mpk, mean): **244 mg/dL | Insulin (female db/db mice [4]; Rosi 10 mpk, mean): *7.4 ng/ml | Liver Weight (female db/db mice [4]; Rosi 10 mpk, mean): 2.15 g | TG (female db/db mice [4]; Rosi 10 mpk, mean): *192 mg/dL

COC(=O)OCC1OC(Oc2cc(C)cc(O)c2C(=O)CCc2ccc3occc3c2)C(O)C(O)C1O (centres unmarked) [T-1095]
Body Weight Change (female db/db mice [3]; T1095 100 mpk, mean): 3.96 g | Liver Weight (female db/db mice [3]; T1095 100 mpk, mean): 1.88 g | Glucose (female db/db mice [3]; T-1095 100 mpk, mean): ***405.13 mg/dL | Insulin (female db/db mice [3]; T-1095 100 mpk, mean): 93.88 ng/mL | TG (female db/db mice [3]; T-1095 100 mpk, mean): 248.88 mg/dL | Glucose (female db/db mice [4]; 3 mpk T-1095, mean): 286 mg/dL | Insulin (female db/db mice [4]; 3 mpk T-1095, mean): **22.5 ng/ml | TG (female db/db mice [4]; 3 mpk T-1095, mean): 263 mg/dL | Glucose (female db/db mice [4]; 10 mpk T-1095, mean): **263 mg/dL | Insulin (female db/db mice [4]; 10 mpk T-1095, mean): 30.1 ng/mL | TG (female db/db mice [4]; 10 mpk T-1095, mean): 256 mg/dL | Glucose (female db/db mice [4]; 30 mpk T-1095, mean): 370 mg/dL | Insulin (female db/db mice [4]; 30 mpk T-1095, mean): 23.9 ng/mL | TG (female db/db mice [4]; 30 mpk T-1095, mean): 315 mg/dL | Glucose (female db/db mice [4]; 100 mpk T-1095, mean): **242 mg/dL | Insulin (female db/db mice [4]; 100 mpk T-1095, mean): 49.1 ng/mL | TG (female db/db mice [4]; 100 mpk T-1095, mean): **243 mg/dL | Body Weight Change (female db/db mice [4]; T-1095 3 mpk, −Rosi, mean): 3.0 g | Liver Weight (female db/db mice [4]; T-1095 3 mpk, −Rosi, mean): 1.63 g | Body Weight Change (female db/db mice [4]; T-1095 10 mpk, −Rosi, mean): 4.3 g | Liver Weight (female db/db mice [4]; T-1095 10 mpk, −Rosi, mean): 1.87 g | Body Weight Change (female db/db mice [4]; T-1095 30 mpk, −Rosi, mean): 2.4 g | Liver Weight (female db/db mice [4]; T-1095 30 mpk, −Rosi, mean): 1.75 g | Body Weight Change (female db/db mice [4]; T-1095 100 mpk, −Rosi, mean): 2.3 g | Liver Weight (female db/db mice [4]; T-1095 100 mpk, −Rosi, mean): 1.73 g | % HbA1C +/− SEM (db/db mice [1]; 3 mpk T-1095): 6.10 ± 0.16% | Body Weight Change (g) ± SEM (db/db mice [1]; 3 mpk T-1095): -6.09 ± 1.9 g | Glucose (db/db mice [1]; 3 mpk T-1095): 490.3 ± 36 mg/dL | Heart Weight (g) ± SEM (db/db mice [1]; 3 mpk T-1095): 0.16 ± 0.02 g | Insulin (db/db mice [1]; 3 mpk T-1095): 10.7 ± 2.2 ng/dL | Liver Weight (g) ± SEM (db/db mice [1]; 3 mpk T-1095): 1.51 ± 0.1 g | TG (db/db mice [1]; 3 mpk T-1095): 210.90 ± 24 mg/dL | % HbA1C +/− SEM (db/db mice [1]; 10 mpk T-1095): 6.00 ± 0.29% | Body Weight Change (g) ± SEM (db/db mice [1]; 10 mpk T-1095): -0.99 ± 1.9 g | Glucose (db/db mice [1]; 10 mpk T-1095): 413.1 ± 50 mg/dL | Heart Weight (g) ± SEM (db/db mice [1]; 10 mpk T-1095): 0.13 ± 0.01 g | Insulin (db/db mice [1]; 10 mpk T-1095): 11.4 ± 3.8 ng/dL | Liver Weight (g) ± SEM (db/db mice [1]; 10 mpk T-1095): 1.58 ± 0.08 g | TG (db/db mice [1]; 10 mpk T-1095): 178.10 ± 21 mg/dL | % HbA1C +/− SEM (db/db mice [1]; 30 mpk T-1095): 5.38 ± 0.23% | Body Weight Change (g) ± SEM (db/db mice [1]; 30 mpk T-1095): -2.44 ± 4.3 g | Glucose (db/db mice [1]; 30 mpk T-1095): 380.6 ± 40 mg/dL | Heart Weight (g) ± SEM (db/db mice [1]; 30 mpk T-1095): 0.14 ± 0.01 g | Insulin (db/db mice [1]; 30 mpk T-1095): 17.7 ± 5.1 ng/dL | Liver Weight (g) ± SEM (db/db mice [1]; 30 mpk T-1095): 1.57 ± 0.09 g | TG (db/db mice [1]; 30 mpk T-1095): 197.20 ± 26 mg/dL | % HbA1C +/− SEM (db/db mice [1]; 100 mpk T-1095): 4.96 ± 0.24 % | Body Weight Change (g) ± SEM (db/db mice [1]; 100 mpk T-1095): -4.83 ± 2.9 g | Glucose (db/db mice [1]; 100 mpk T-1095): 367.2 ± 42 mg/dL | Heart Weight (g) ± SEM (db/db mice [1]; 100 mpk T-1095): 0.14 ± 0.01 g | Insulin (db/db mice [1]; 100 mpk T-1095): 25.5 ± 6.2 ng/dL | Liver Weight (g) ± SEM (db/db mice [1]; 100 mpk T-1095): 1.64 ± 0.11 g | TG (db/db mice [1]; 100 mpk T-1095): 151.20 ± 17 mg/dL | AUC glucose % of Vehicle ± SEM (db/db mice [2]; 3 mpk T-1095, 32 day oral dosing): 95.75 ± 8.45 % of Vehicle | AUC glucose % of Vehicle ± SEM (db/db mice [2]; 10 mpk T-1095, 32 day oral dosing): 76.6 ± 6.85 % of Vehicle | AUC glucose % of Vehicle ± SEM (db/db mice [2]; 30 mpk T-1095, 32 day oral dosing): 73.69 ± 5.7 % of Vehicle | AUC glucose % of Vehicle ± SEM (db/db mice [2]; 100 mpk T-1095, 32 day oral dosing): 49.1 ± 3.21 % of Vehicle | pro-drug conversion ([5]; in vivo, liver): converted to its active form T-1095A in the liver | oral glucose tolerance test and hyperinsulinemic euglycemic clamp ([5]; in vivo, po): improvement of glucose tolerance and the reduction of insulin resistance | adverse signs during treatment ([5]; in vivo): no observed sign of adding weight, infection in the urinary tracts, electrolyte imbalance in plasma, changes in food intake, acute hypoglycemic shock nor pathological changes in the kidney | elevated blood glucose levels ([5]; oral administration, rodent models of IDDM and NIDDM): suppress elevated blood glucose levels | fed and fasting blood glucose levels and HbA1c ([5]; treatment for 3 weeks to 6 months, diabetic rodent models): reduced both fed and fasting blood glucose levels and HbA1c | hyperinsulinemia, hypertriglyceridemia, microalbuminuria ([5]; yellow KK mice and other diabetic mice models): decrease in the hyperinsulinemia, hypertriglyceridemia, and the development of microalbuminuria
